System: 817829-284-R-J1-PDC multi-cell spheroid viability
Test: Anticancer human tumor 817829-284-R-J1-PDC patient-derived colon adenocarcinoma cell line growth inhibition [PI3K]
Settings: for IC50: curve of first compound; for viability, T/C: stronger effect = lower value; active means viability on the fitted dose curve at most 10% of control; inactive means the rest
Summary of the method: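 Complex 3D spheroids (cancer cells + endothelial HUVEC + mesenchymal stem cells); drug pairs of targeted agent x inavolisib/alpelisib/duvelisib/copanlisib; half-log series from ~Cmax, max 10 microM if Cmax unknown; endpoint viability.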
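Further: spheroids exposed to agents for seven days before readout.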
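Wherever viability, T/C is given: percent of vehicle DMSO control viability which is 100%.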

C#Cc1c(F)ccc2cc(O)cc(-c3ncc4c(N5CC6CCC(C5)N6)nc(OCC56CCCN5CC(F)C6)nc4c3F)c12 (configuration not stated) + CC(Nc1ccc2c(c1)OCCn1cc(N3C(=O)OCC3C(F)F)nc1-2)C(N)=O
> 10 µM: IC50 (second compound 0.0316 µM) | IC50 (second compound 0.1 µM)
5.16 µM: IC50 (second compound 0.01 µM)
< 0.0316 µM: IC50 (second compound 1 µM)
inactive: viability, T/C (second compound 0.00316 µM, first compound 0.0316 µM) 83.7% | viability, T/C (second compound 0.00316 µM, first compound 0.1 µM) 75.3% | viability, T/C (second compound 0.00316 µM, first compound 0.316 µM) 87.4% | viability, T/C (second compound 0.00316 µM, first compound 1 µM) 77.4% | viability, T/C (second compound 0.00316 µM, first compound 3.16 µM) 69.9% | viability, T/C (second compound 0.00316 µM, first compound 10 µM) 47.2% | viability, T/C (second compound 0.01 µM, first compound 0.0316 µM) 90% | viability, T/C (second compound 0.01 µM, first compound 0.1 µM) 84.8% | viability, T/C (second compound 0.01 µM, first compound 0.316 µM) 72.7% | viability, T/C (second compound 0.01 µM, first compound 1 µM) 79.9% | viability, T/C (second compound 0.01 µM, first compound 3.16 µM) 56.1% | viability, T/C (second compound 0.01 µM, first compound 10 µM) 38.3% | viability, T/C (second compound 0.0316 µM, first compound 0.0316 µM) 74.9% | viability, T/C (second compound 0.0316 µM, first compound 0.1 µM) 69.8% | viability, T/C (second compound 0.0316 µM, first compound 0.316 µM) 58.5% | viability, T/C (second compound 0.0316 µM, first compound 1 µM) 65.9% | viability, T/C (second compound 0.0316 µM, first compound 3.16 µM) 63.5% | viability, T/C (second compound 0.0316 µM, first compound 10 µM) 47.8% | viability, T/C (second compound 0.1 µM, first compound 0.0316 µM) 64.9% | viability, T/C (second compound 0.1 µM, first compound 0.1 µM) 79.8% | viability, T/C (second compound 0.1 µM, first compound 0.316 µM) 56.1% | viability, T/C (second compound 0.1 µM, first compound 1 µM) 80.5% | viability, T/C (second compound 0.1 µM, first compound 3.16 µM) 77.8% | viability, T/C (second compound 0.1 µM, first compound 10 µM) 39% | viability, T/C (second compound 0.316 µM, first compound 0.0316 µM) 53.5% | viability, T/C (second compound 0.316 µM, first compound 0.1 µM) 83.5% | viability, T/C (second compound 0.316 µM, first compound 0.316 µM) 48.6% | viability, T/C (second compound 0.316 µM, first compound 1 µM) 71.2% | viability, T/C (second compound 0.316 µM, first compound 3.16 µM) 54.7% | viability, T/C (second compound 0.316 µM, first compound 10 µM) 32.2% | viability, T/C (second compound 1 µM, first compound 0.0316 µM) 45.1% | viability, T/C (second compound 1 µM, first compound 0.1 µM) 45.3% | viability, T/C (second compound 1 µM, first compound 0.316 µM) 47.8% | viability, T/C (second compound 1 µM, first compound 1 µM) 60.3% | viability, T/C (second compound 1 µM, first compound 3.16 µM) 59.9% | viability, T/C (second compound 1 µM, first compound 10 µM) 30.2%
4.35 µM: IC50 (second compound 0.316 µM)
8.67 µM: IC50 (second compound 0.00316 µM)

From PubChem BioAssay AID1963969 (Molecular Pharmacology Branch, DTP, NCI, 2024)
